Source: US6316451A, “Heterocyclyl anthracyclinone derivatives” (Pharmacia & Upjohn S.p.A., priority 1998, dated 2001)

Biological target: T1, Aβ1-40 peptide monomer (Homo sapiens, UniProt P05067)
T1 construct: An Aβ1-40 peptide monomer stock solution was prepared
Experiment: Inhibition of the seed-triggered aggregation of Aβ1-40 peptide monomer (HPLC quantitation of residual monomer)
Assay type: biochemical
Conditions: 50 μm test compound; 20 μM Aβ1-40 monomer; 4 μm pre-formed sonicated Aβ1-40 fibrils (seed); phosphate buffer pH 7.4, 150 mM NaCl; two hours at 37° C.
Experimental: The compounds disclosed in the present invention interfere with the aggregation of monomeric Aβ1-40 peptide stimulated by a seed of Aβ1-40 amyloid fibrils. The activity of the compounds was assessed according to the procedure reported below.
An Aβ1-40 peptide monomer stock solution was prepared by dissolving the peptide in dimethylsulfoxide at a concentration of 33.33 mg/ml. The stock solution was further diluted 11.5 times with dimethylsulfoxide. This solution was then diluted with 10 mM phosphate buffer pH 7.4 containing 150 mM sodium chloride to prepare the test solution.
To an eppendorf tube containing 47 μl of Aβ1-40 peptide monomer solution were added 3 μl of a 830 μM water solution of the test compound containing 66.4 μM, based on the Aβ1-40 monomer content, of pre-formed sonicated Aβ1-40 fibrils: the resulting solution was 20 μM in Aβ1-40 monomer, 50 μm in the test compound and contained 4 μm, based on the Aβ1-40 monomer content, of pre-formed sonicated Aβ1-40 fibrils. The aggregation was allowed to proceed for two hours at 37° C. The suspension was then centrifuged at 15000 rpm for 15 minutes at +4° C., the supernatant was collected and the Aβ1-40 monomer was quantitated by HPLC.
The activity is expressed as the percent of inhibition of the aggregation of a 20 μM Aβ1-40 monomer solution stimulated by 4 μm, based on the Aβ1-40 monomer content, pre-formed sonicated Aβ1-40 fibrils.

T1 sequence (P05067 672-711 limits assumed): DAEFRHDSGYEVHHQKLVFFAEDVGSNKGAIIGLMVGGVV

Compound	% INHIBITION of the aggregation of Aβ1-40 monomer [%]
COc1cccc2c1C(=O)c1c(O)c3c(c(O)c1C2=O)C[C@@](O)(c1csc(N2CCN(C)CC2)n1)CC3 [Compound 1i, 7-Deoxy-9-deacetyl-9-[2-(4-methyl-piperazin-1-yl)-thiazol-4-yl]-daunomycinone]	31.7
COc1cccc2c1C(=O)c1c(O)c3c(c(O)c1C2=O)C[C@@](O)(c1csc(N2CCN(C)CC2)n1)C[C@@H]3N1CCOCC1 [Compound 1j, 7-Deoxy-7-(4-morpholinyl)-9-deacetyl-9-[2-(4-methyl-perazin-1-yl)-thiazol-4-yl]-daunomycinone]	49.2
COc1cccc2c1C(=O)c1c(O)c3c(c(O)c1C2=O)C[C@@](O)(c1csc(NCCN(C)C)n1)C[C@@H]3O [Compound 1d, 9-Deacetyl-9-[2-(2-dimethylaminoethylamino)-thiazol-4-yl]-daunomycinone]	33.7
